Like-named read-outs stand apart in the source and are kept apart here.
Key:
Panc1 = assay: Time dependence of growth inhibitory activity, Panc1; format: cell-based; details: Homo sapiens, PANC-1
[1] = Metal chelation by UV spectroscopy titration, Mg2+; format: physicochemical; details: 100 μM ligand, 10 mM ammonium acetate pH 7.0, metal 100 μM to 1 mM
From the text: There have been multiple reports of small molecule agents inhibiting RR through the scavenging of free radicals that are required for the reduction of nucleotide diphosphates. Nitric oxide and hydroxyurea (that quench the tyrosyl free radicals), and iron chelating small molecules such as desferrioxamine (that irreversibly chelate to Fe-(II) that is essential for -housing the free radicals) are a few examples. […] Therefore to test this hypothesis, the propensity of NSAAH-E-3A to bind to Mg^2+ and Fe^2+ (both present in the inhibition assay previously described) was determined by UV spectroscopy. In 10 mM ammonium acetate buffer (pH 7.0), a 100 μM solution of NSAAH-E-3A was titrated against FeCl2.6H2O and MgCl2.6H2O idependently at varying concentrations of metal ranging from 100 μM to 1 mM. The stoichiometry of NSAAH-E-3A : M^2+ tested were 1:1, 1:2, 1:3, 1:4, 1:5, 1:6, 1:7, 1:8, 1:9, and 1:10. A scanning UV […] spectrum was recorded between 200-800 nm at each concentration. Noticeable changes occurred -when NSAAH-E-3A was subjected to a titration with FeCl2.6H2O at concentrations of metal ranging from 600 μM to 1 mM. […] Similarly, a titration experiment was carried against Mg^2+ salt at concentrations of metal ranging from 100 μM to 1 mM at stoichiometry of 1:1, 1:2, 1:3, 1:4, 1:5, 1:6, 1:7, 1:8, 1:9, and 1:10.

select cancer cell lines = assay: Cellular IC50 of NSAAH library (Table 3); format: cell-based
Protocol: (§1) Cell were maintained in standard tissue culture media (RPMI1640, +10% fetal bovine serum, plus antibiotic) and grown in a standard humidified 5% CO2 incubator at 37° C. Cells were regularly tested using the MycoAlert detection kit (Lonza Biologics) and shown to be mycoplasma-free. Initial compound screening was performed using both MDA-MB-23 land HCT-116 cell lines. For moderate throughput screening (up to 120 drugs per experiment), cells were seeded into 96 well plates and allowed to attach overnight. The following day media was removed and replaced with fresh compound containing media. Each compound was tested against both cell lines at 3 concentrations; 1 μM, 10 μM and 50 μM, in duplicate. Cells were incubated with compound containing media for three days in a standard 5% CO2 tissue culture incubator. Cell growth was assessed after 3 days using the DNA dye binding assay, as originally described by LaBarca and Paigen. Relative growth was independently calculated for each cell line, based on DNA content from corresponding cells grown in control media plus diluent (DMSO). Additional growth inhibition experiments utilized either the DNA binding assay or the Promega CellTiter 96® (MTT reduction) assay, with similar results. For detailed growth inhibition assays, cells (1500-2500 depending on the growth characteristics of the cell line) were seeded in standard 96 well tissue culture plates and allowed to attach overnight. The following day media was removed and replaced with drug containing media. Each dose group consisted of 5 replicate wells, and results are reported a Relative Growth, calculated as DNA or MTT reduction per well, divided by the signal from untreated cells, both harvested 3 days after drug administration.

HCT116 = assay: Time dependence of growth inhibitory activity, HCT116; format: cell-based; details: Homo sapiens, HCT-116
Protocol: (§2) The growth inhibition assay was performed in the Preclinical Drug Testing Laboratory of the Case Comprehensive Cancer Center using a standardized protocol. Cell lines (human colon cancer HCT116 and human breast cancer MDA-MB-231 cells) were maintained in standard growth media; RPMI1640+10% FBS+2 mM glutamine+100U/ml penicillin, 100 ug/ml streptomycin and shown to be negative for mycoplasma contamination using the MycoAlert™ Mycoplasma Detection kit (Lonza, Basel, Switzerland). Cell identity was verified by Short Tandem Repeat (STR) testing performed using the Promega StemElite kit, in the Genetic Resources Core Facility (GRCF) at Johns Hopkins University.
(§3) For growth inhibition assays, cells were harvested by trypsinization and seeded into 96-well tissue culture plates at 2500 cells/mL. The following day an equal volume of 2×-drug containing medium was added to each well. […] Cell growth was assessed by measuring DNA content per well using the method of Labarca and Paigen. Dye fluorescence was measured in a Perkin-Elmer 1420 Victor3 Multilabel plate reader using 355 nm excitation and 460 nm emission.

[2] = tested on: MDA-MB-231, HCT116, A549 and Panc1 cell lines; assay: Detailed growth inhibition studies, median effect dose; format: cell-based; details: Homo sapiens, 72 h, read-out: median effect dose (Dm), growth inhibitory activity
Protocol: Cell were maintained in standard tissue culture media (RPMI1640, +10% fetal bovine serum, plus antibiotic) and grown in a standard humidified 5% CO2 incubator at 37° C. […] For moderate throughput screening (up to 120 drugs per experiment), cells were seeded into 96 well plates and allowed to attach overnight. The following day media was removed and replaced with fresh compound containing media. Each compound was tested against both cell lines at 3 concentrations; 1 μM, 10 μM and 50 μM, in duplicate. Cells were incubated with compound containing media for three days in a standard 5% CO2 tissue culture incubator. Cell growth was assessed after 3 days using the DNA dye binding assay, as originally described by LaBarca and Paigen. Relative growth was independently calculated for each cell line, based on DNA content from corresponding cells grown in control media plus diluent (DMSO). […] The following day media was removed and replaced with drug containing media.
Over 190 compounds were screened for their ability to inhibit growth and/or induce cell death in established cancer cell lines.

[3] = tested on: MDA-MB-231 and HCT-116 cell lines; assay: Growth inhibition screening assay (In Cell IC50); format: cell-based, human; details: Homo sapiens, 72 h; 3 days with compound
Protocol: as §1

[4] = tested on: normal mobilized peripheral blood progenitor cells; assay: Blood progenitor colony forming unit (CFU) assay; format: cell-based, human; details: 14 days
Protocol: The CFU assay was performed in the Hematopoietic Biorepository and Cellular Therapy Core Facility of the Case Comprehensive Cancer Center using a standardized protocol.
Briefly, mobilized peripheral blood mononuclear cells were collected from healthy donors by apheresis after Neupogen stimulation under University Hospitals IRB Protocol #09-90-195. Excess discarded cells were diluted to 1(10^6) cells/mL in RPMI1640+15% fetal bovine serum, 100 U/mL penicillin, 100 μg/mL streptomycin and 50.4 units/ml GM-CSF. Drug solution was added to the cell suspension and 9× volume of complete methylcellulose (Methocult H4434+50 μM hemin.). The methylcellulose/cell suspension was aliquoted into triplicate 35-mm gridded tissue culture plates and incubated in a humidified 5% CO2 incubator at 37° C. for 14 days. Plates were counted visually and clusters of >50 cells were scored as surviving colonies.

MDA-231 = assay: Time dependence of growth inhibitory activity, MDA-231; format: cell-based; details: Homo sapiens, MDA-MB-231
Protocol: as §2, §3

MDA-MB-231 = assay: Combination experiment: gemcitabine with sublethal compound 2; details: Homo sapiens, MDA-MB-231, read-out: Dm, Gemcitabine alone

Row | Structure (SMILES) | IC50 (Panc1; Panc1, Drug Exposure 2 hr) | IC50 (Panc1; Panc1, Drug Exposure 6 hr) | IC50 (Panc1; Panc1, Drug Exposure 24 hr) | IC50 (Panc1; Panc1, Drug Exposure 72 hr) | ligand:Mg^2+ stoichiometry at which the UV spectrum shows binding [1] | IC50 (select cancer cell lines) | IC50 (HCT116; HCT116, Drug Exposure 2 hr) | IC50 (HCT116; HCT116, Drug Exposure 6 hr) | IC50 (HCT116; HCT116, Drug Exposure 24 hr) | IC50 (HCT116; HCT116, Drug Exposure 72 hr) | IC50 [2] | IC50 [3] | cytotoxicity against normal blood progenitor cells [4] | IC50 (MDA-231; MDA-231, Drug Exposure 2 hr) | IC50 (MDA-231; MDA-231, Drug Exposure 6 hr) | IC50 (MDA-231; MDA-231, Drug Exposure 24 hr) | IC50 (MDA-231; MDA-231, Drug Exposure 72 hr) | IC50 (MDA-MB-231) | IC50 ([2]; set of four cell lines, 3 days)
1 | O=C(N/N=C/c1c(O)ccc2ccccc12)c1ccccc1O [compound 3, (E)-2-hydroxy-N′-((2-hydroxynaphthalenyl)methylene) benzohydrazide] | > 10000 nM | > 10000 nM | 898 nM | 442 nM | no noticeable change | 0.225 nM | > 10000 nM | > 10000 nM | 572 nM | 221 nM | 500 to 1000 nM | 380 nM | little measurable cytotoxicity | > 10000 nM | > 10000 nM | 658 nM | 498 nM |  | 
2 | Nc1ccn([C@@H]2O[C@H](CO)[C@@H](O)C2(F)F)c(=O)n1 [Gemcitabine, reference compound] | 680 nM | 406 nM | 84 nM | 46 nM |  |  | 487 nM | 343 nM | 58 nM | 30 nM |  |  |  | 1930 nM | 1540 nM | 274 nM | 100 nM | 920 nM | 500 to 1000 nM
